Laboratory results: paper PMC4506051, “Pharmacokinetic Profiles of Active Ingredients and Its Metabolites Derived from Rikkunshito, a Ghrelin Enhancer, in Healthy Japanese Volunteers: A Cross-Over, Randomized Study” (PLoS ONE, 2015)

Assays:
[1] = Dose proportionality (linearity) test by power model for C max and AUC0-last; settings: for Dose proportionality test using power model, Inference: linear when 90% CI of β included 1, CIlower ≥0.8, and CIupper ≤1.25; for Dose proportionality test using power model, β: rikkunshito 2.5, 5.0 or 7.5 g
Protocol: The dose proportionality was analyzed via a power model [21, 22]. […] Evaluation of linearity of the dosage-exposure relationship was conducted with Phoenix WinNonlin and SAS 9.2 (SAS Institute, Inc., Cary, NC).

[2] = Exploratory trial: amount of rikkunshito ingredients in urine; type: in vivo, human; settings: mean ± S.D., n = 4
How it was run: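 Subjects took single oral 7.5 g rikkunshito; urine collected pre-dose and 0–4 h and 4–8 h post-dose, stored at −80 °C or lower. Synephrine quantified by LC–MS/MS after plate cleanup with erythromycin IS; other ingredients after β-glucuronidase (2 h, 37 °C) and HLB solid-phase extraction.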

[3] = Method validation: freeze-thaw stability in plasma
[4] = Exploratory trial: plasma concentration of rikkunshito ingredients after single oral rikkunshito 7.5 g; type: in vivo
How it was run: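 Healthy volunteers took a single oral rikkunshito dose of 7.5 g. Heparinized forearm blood was drawn at 0, 0.5, 1, 2, 4 and 8 h, with urine pooled pre-dose, 0–4 h and 4–8 h. Analytes were quantified in plasma by LC–MS/MS with internal standards, after solid-phase extraction and, where applied, 2 h β-glucuronidase treatment at 37°C.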

ghrelin receptor (GHS-R) = settings: cited from earlier work
[5] = Method validation: post-preparative stability (autosampler); settings: for Post-preparative stability, RR: autosampler set at 4°C
[6] = Method validation: long-term stability in plasma
[7] = Method validation: stability in blood
[8] = Method validation: short-term stability in plasma
[9] = Formation of ingredients derived from rikkunshito in formulation, blood, and urine (S11 Table summary); settings: after rikkunshito administration, per ingredient in the formulation; for Formation of ingredients: form found in Urine: BQL = below the quantification limit
butyrylcholinesterase = settings: cited from earlier work

SMILES: C/C=C/C#CC#C/C=C/c1ccco1 [Atractylodin]
- Dose proportionality test using power model, Inference ([1]; AUC0-last): Nonlinear
- Dose proportionality test using power model, β ([1]; AUC0-last): 1.60
- Dose proportionality test using power model, Inference ([1]; Cmax): Linear^a
- Dose proportionality test using power model, β ([1]; Cmax): 0.988
- Amount in urine, 0–4 h ([2]; 0–4 h after single oral rikkunshito 7.5 g): 75.8 ± 152 ng
- Amount in urine, 4–8 h ([2]; 4–8 h after single oral rikkunshito 7.5 g): BQL
- Amount in urine, Pre ([2]; preadministration (between dinner and bedtime)): BQL
- Freeze-thaw stability, RR ([3]; atractylodin 0.600 ng/mL, deep freezer, 2 cycles): 109.3%
- Freeze-thaw stability, RR ([3]; atractylodin 0.600 ng/mL, deep freezer, 3 cycles): 115.1%
- Freeze-thaw stability, RR ([3]; atractylodin 16.0 ng/mL, deep freezer, 2 cycles): 122.6%
- Freeze-thaw stability, RR ([3]; atractylodin 16.0 ng/mL, deep freezer, 3 cycles): 133.6%
- concentration at 0 h ([4]; human, in vivo, 0 h (preadministration), single oral rikkunshito 7.5 g, mean ± S.D., n = 4, read-out: Plasma concentration, 0 h): 0.328 ± 0.655 ng/mL
- concentration at 0.5 h ([4]; human, in vivo, 0.5 h after single oral rikkunshito 7.5 g, mean ± S.D., n = 4, read-out: Plasma concentration, 0.5 h): 1.19 ± 0.913 ng/mL
- concentration at 1 h ([4]; human, in vivo, 1 h after single oral rikkunshito 7.5 g, mean ± S.D., n = 4): 1.38 ± 1.15 ng/mL
- concentration at 2 h ([4]; human, in vivo, 2 h after single oral rikkunshito 7.5 g, mean ± S.D., n = 4, read-out: Plasma concentration, 2 h): 0.863 ± 1.01 ng/mL
- concentration at 4 h ([4]; human, in vivo, 4 h after single oral rikkunshito 7.5 g, mean ± S.D., n = 4, read-out: Plasma concentration, 4 h): 1.14 ± 0.899 ng/mL
- concentration at 8 h ([4]; human, in vivo, 8 h after single oral rikkunshito 7.5 g, mean ± S.D., n = 4, read-out: Plasma concentration, 8 h): 0.295 ± 0.59 ng/mL
- Cmax ([4]; human, in vivo, rikkunshito 7.5 g, four subjects, highest mean concentration over 0–8 h, read-out: C max in plasma (exploratory trial)): 1.38 ng/mL
- Known pharmacology activities: ghrelin signal (ghrelin receptor (GHS-R)): Ghrelin signal enhancement effect [1]
- Post-preparative stability, RE ([5]; atractylodin 0.600 ng/mL, autosampler set at 4°C for 24 h): -3.8%
- Post-preparative stability, RE ([5]; atractylodin 0.600 ng/mL, autosampler set at 4°C for 48 h): 4.0%
- Post-preparative stability, RE ([5]; atractylodin 16.0 ng/mL, autosampler set at 4°C for 24 h): 9.0%
- Post-preparative stability, RE ([5]; atractylodin 16.0 ng/mL, autosampler set at 4°C for 48 h): 8.7%
- Long-term stability, RR ([6]; atractylodin 0.600 ng/mL, deep freezer, 15 days): 98.4%
- Long-term stability, RR ([6]; atractylodin 0.600 ng/mL, deep freezer, 29 days): 88.7%
- Long-term stability, RR ([6]; atractylodin 0.600 ng/mL, deep freezer, 57 days): 101.4%
- Long-term stability, RR ([6]; atractylodin 0.600 ng/mL, deep freezer, 169 days): 95.2%
- Long-term stability, RR ([6]; atractylodin 16.0 ng/mL, deep freezer, 15 days): 98.6%
- Long-term stability, RR ([6]; atractylodin 16.0 ng/mL, deep freezer, 29 days): 98.6%
- Long-term stability, RR ([6]; atractylodin 16.0 ng/mL, deep freezer, 57 days): 109.4
- Long-term stability, RR ([6]; atractylodin 16.0 ng/mL, deep freezer, 169 days): 102.8%
- Stability in blood, remaining ratio (RR) ([7]; atractylodin 1.00 ng/mL, at room temperature for 2 h): 90.3%
- Stability in blood, RR ([7]; atractylodin 1.00 ng/mL, on ice for 2 h): 93.8%
- Short-term stability, RR ([8]; atractylodin 0.600 ng/mL, deep freezer (−90.4°C to −69.5°C) for 4 h): 95.6%
- Short-term stability, RR ([8]; atractylodin 0.600 ng/mL, deep freezer for 24 h): 101.5%
- Short-term stability, RR ([8]; atractylodin 16.0 ng/mL, deep freezer (−90.4°C to −69.5°C) for 4 h): 101.9%
- Short-term stability, RR ([8]; atractylodin 16.0 ng/mL, deep freezer for 24 h): 102.9%
- Formation of ingredients: form found in Urine [9]: Atractylodin

SMILES: C=C(CC[C@@H](C(=O)O)[C@H]1[C@H](O)C[C@@]2(C)C3=C(CC[C@]12C)[C@@]1(C)CC[C@H](OC(C)=O)C(C)(C)[C@@H]1CC3)C(C)C [Pachymic acid]
- Dose proportionality test using power model, Inference ([1]; AUC0-last): Nonlinear
- Dose proportionality test using power model, β ([1]; AUC0-last): 1.39
- Dose proportionality test using power model, Inference ([1]; Cmax): Nonlinear
- Dose proportionality test using power model, β ([1]; Cmax): 0.856
- Freeze-thaw stability, RR ([3]; −30°C to −10°C, 3 cycles, higher concentration (800 / 320 / 4000 pg/mL)): 114.0%
- Freeze-thaw stability, RR ([3]; −30°C to −10°C, 3 cycles, lower concentration (20 / 8 / 100 pg/mL)): 108.8%
- Plasma concentration, 0 h ([4]; 0 h (preadministration), single oral rikkunshito 7.5 g, mean ± S.D., n = 4): 0.14 ± 0.184 ng/mL
- Plasma concentration, 0.5 h ([4]; 0.5 h after single oral rikkunshito 7.5 g, mean ± S.D., n = 4): 0.126 ± 0.185 ng/mL
- Plasma concentration, 1 h ([4]; 1 h after single oral rikkunshito 7.5 g, mean ± S.D., n = 4): 0.127 ± 0.178 ng/mL
- Plasma concentration, 2 h ([4]; 2 h after single oral rikkunshito 7.5 g, mean ± S.D., n = 4): 0.205 ± 0.0765 ng/mL
- Plasma concentration, 4 h ([4]; 4 h after single oral rikkunshito 7.5 g, mean ± S.D., n = 4): 0.0905 ± 0.181 ng/mL
- Plasma concentration, 8 h ([4]; 8 h after single oral rikkunshito 7.5 g, mean ± S.D., n = 4): 0.103 ± 0.129 ng/mL
- Post-preparative stability, RR ([5]; 24 h, higher concentration (pachymic acid 800, heptamethoxyflavone 320 pg/mL)): 88.4%
- Post-preparative stability, RR ([5]; 24 h, lower concentration (pachymic acid 20, heptamethoxyflavone 8 pg/mL)): 92.4%
- Post-preparative stability, RR ([5]; 48 h, higher concentration (800 / 320 / 4000 pg/mL)): 98.2%
- Post-preparative stability, RR ([5]; 48 h, lower concentration (20 / 8 / 100 pg/mL)): 93.8%
- Long-term stability, RR ([6]; freezer −30°C to −10°C, 13 days, lower concentration (pachymic acid 20, heptamethoxyflavone 8 pg/mL)): 110.9%
- Long-term stability, RR ([6]; freezer, 13 days, higher concentration (pachymic acid 800, heptamethoxyflavone 320 pg/mL)): 113.9%
- Long-term stability, RR ([6]; freezer, 39 days, higher concentration (800 / 320 pg/mL)): 107.6%
- Long-term stability, RR ([6]; freezer, 39 days, lower concentration (20 / 8 pg/mL)): 104.1%
- Long-term stability, RR ([6]; freezer, 228 days, higher concentration (800 / 320 pg/mL)): 92.5%
- Long-term stability, RR ([6]; freezer, 228 days, lower concentration (20 / 8 pg/mL)): 89.6%
- Butyrylcholinesterase inhibition (butyrylcholinesterase): inhibit butyrylcholinesterase
- Known pharmacology activities: ghrelin metabolizing enzyme (butyrylcholinesterase): Ghrelin metabolizing enzyme inhibitory effect [17]
- Stability in blood, RR ([7]; on ice 2 h, higher concentration (800 / 320 / 4000 pg/mL)): 93.4%
- Stability in blood, RR ([7]; on ice 2 h, lower concentration (20 / 8 / 100 pg/mL)): 103.1%
- Stability in blood, RR ([7]; room temperature 2 h, higher concentration (pachymic acid 800, heptamethoxyflavone 320, naringenin 4000 pg/mL)): 91.8%
- Stability in blood, RR ([7]; room temperature 2 h, lower concentration (pachymic acid 20, heptamethoxyflavone 8, naringenin 100 pg/mL)): 103.1%
- Short-term stability, RR ([8]; room temperature 25 h, higher concentration (pachymic acid 800, heptamethoxyflavone 320 pg/mL)): 93.8%
- Short-term stability, RR ([8]; room temperature 25 h, lower concentration (pachymic acid 20, heptamethoxyflavone 8 pg/mL)): 85.9%
- Short-term stability, RR ([8]; room temperature (1°C to 30°C) 4 h, higher concentration (800 / 320 / 4000 pg/mL)): 95.1%
- Short-term stability, RR ([8]; room temperature (1°C to 30°C) 4 h, lower concentration (20 / 8 / 100 pg/mL)): 95.8%
- Formation of ingredients: form found in Blood [9]: Pachymic acid
- Formation of ingredients: form found in Urine [9]: BQL
